In patent US7880014B2, “Angiotensin II receptor antagonists” (Merck Sharp & Dohme Corp., priority 2006, dated 2011):

What was measured:
[1] = system: rabbit aortic slices; assay: vessel relaxation assay (in vitro, tissue-based, rabbit aortic slices); type: cell-based
[2] = biological target: T1, CYP3A4 (Homo sapiens, UniProt P08684); assay: CYP3A4 Time-Dependent Inhibition Assay (pooled human liver microsomes, testosterone 6β-hydroxylation); type: in vitro ADME; conditions: human liver microsomes 1 mg/mL, preincubation 5 to 30 min
T1 construct: Pooled human liver microsomes (1 mg/mL) were preincubated at 37° C; from tissue; host or cells: pooled human liver microsomes
Experimental: The incubation mixtures were diluted 10-fold with the same buffer containing 250 μM testosterone and an NADPH-generating system. The incubation was continued for an additional 10 min to monitor the extent of testosterone 6β-hydroxylation. The first order rate constants (kobs) for inactivation at 10 and 50 μM were calculated from the negative slope of the lines by linear regression analysis of the natural logarithm of the remaining activity as a function of time using KaleidaGraph Synergy Software (Reading, Pa.).

T1 sequence (P08684 whole entry): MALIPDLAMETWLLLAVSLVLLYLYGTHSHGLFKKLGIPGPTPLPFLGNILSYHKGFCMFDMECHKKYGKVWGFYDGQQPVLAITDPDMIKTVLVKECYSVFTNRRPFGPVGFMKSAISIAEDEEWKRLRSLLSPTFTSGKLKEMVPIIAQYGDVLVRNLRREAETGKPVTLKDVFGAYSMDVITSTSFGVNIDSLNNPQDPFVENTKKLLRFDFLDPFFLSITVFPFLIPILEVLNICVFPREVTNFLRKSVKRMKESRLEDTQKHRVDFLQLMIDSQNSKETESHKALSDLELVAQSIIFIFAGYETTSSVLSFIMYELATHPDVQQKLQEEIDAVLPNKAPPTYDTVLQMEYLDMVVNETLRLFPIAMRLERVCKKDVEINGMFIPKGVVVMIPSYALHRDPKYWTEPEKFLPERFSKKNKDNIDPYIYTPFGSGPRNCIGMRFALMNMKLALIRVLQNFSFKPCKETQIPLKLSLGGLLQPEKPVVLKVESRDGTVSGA

## CCCCc1nc(Cl)c(C(=O)OC(C)OC(=O)OCCCC[C@H](CO[N+](=O)[O-])O[N+](=O)[O-])n1Cc1ccc(-c2ccccc2-c2nnn[nH]2)cc1 (single isomer, unassigned) [Compound 3]
[1]
  EC50: 1300 nM
[2]
  Rate Constant (kobs) at 10 μM: ~0.077 min⁻¹
  Rate Constant (kobs) at 50 μM: 0.076 min⁻¹

## CCCCc1nc(Cl)c(C(=O)OC(C)OC(=O)OCCCC[C@H](CO[N+](=O)[O-])O[N+](=O)[O-])n1Cc1ccc(-c2ccccc2-c2nnn[nH]2)cc1 (single isomer, unassigned) [Compound 2]
[2]
  Rate Constant (kobs) at 10 μM: 0.026 min⁻¹
  Rate Constant (kobs) at 50 μM: 0.037 min⁻¹
